Common to all, as to format: in vivo, human
The test system of experiment [1] is Type II diabetic patients. Put plainly: 2 hour glucose tolerance test during 24 week omeprazole trial (Example 4). As to the method:
(§1) Seven Type II diabetic patients were administered omeprazole for 24 weeks and data was obtained from fasting and following a 2 hour glucose tolerance test at 8 week intervals and compared to baseline values. Statistical comparisons and analysis were performed with a commercial program, Analyse-it, version 2.20.
(§2) Subjects: Five males, 2 females, age range 42-68 years, mean age 54+10 years. BMI's ranged from 31 to 49, mean 38+6. All subjects had co-morbid hypertension, four had co-morbid dyslipidemia and two had co-morbid hypothyroidism. All were stable on oral diabetes medications with 7/7 on metformin, 6/7 on pioglitazone (Actos), 4/7 on a DPP-4 inhibitor, sitagliptan (Januvia) and 4/7 on a Sulfonylurea. All subjects received a physical exam, review of systems and a baseline EKG prior to initiating the PPI trial. Subjects were then seen and evaluated at monthly intervals interviewed for adverse events and monitored for medication compliance and maintenance of daily blood glucose logs.
(§3) Design: All subjects continued on their respective oral antidiabetic medications throughout the study. Baseline data was obtained in a fasting state after an overnight fast. Subjects were then administered 75 g of glucose and blood samples obtained at 1 and 2 hours. Following collection of baseline data, subjects were administered Omeprazole Delayed-Release Capsules USP, (Apotex Inc., Toronto, Canada M9L 179), 40 mg orally twice daily and blood samples again obtained after 8, and 16 weeks. Medications were not taken on the mornings of testing. Following the 16 week sample collection, subjects were increased to 80 mg Omeprazole twice daily and blood samples again obtained at 24 weeks.
Measurements: Helicobacter Pylori IgG was obtained on each subject as a baseline as were Hemoglobin A1c and fasting Gastrin. Each 2 hour glucose tolerance test provided fasting glucose, insulin and c-peptide as well as 1 hour and 2 hour glucose and stimulated insulin and c-peptide. All measurements were obtained through a commercial laboratory using standardized analytical methods, Quest Diagnostics Laboratory, 5850 Rogerdale Road, Houston, Tex. 77072.

The subject of experiment [2] is Type II diabetic patients. Put plainly: % Beta Cell area calculated from the 2 hour glucose tolerance value (method of Meier et al) (Example 4). The following applies: seven Type II diabetics; PPI administration. The method, then:
as §3
Table 2 summarizes the effects of PPI administration on plasma Gastrin, Hemoglobin A1c and % Beta Cell area (calculated using the 2 hour glucose tolerance value by the method of Meier et al, Diabetes, vol 58, 1595-1603, 2009). […] Hemoglobin A1c, a measure of average blood glucose, was reduced by approximately 0.9% in this cohort, consistent with improved diabetes control (FIG. 6). Finally, the calculated Beta cell mass increased across the treatment period by approximately 25%.

The test system of experiment [3] is Type II diabetic patients. Put plainly: Hemoglobin A1c during 24 week omeprazole trial (Example 4). The method, then: as §1, §2
Design: All subjects continued on their respective oral antidiabetic medications throughout the study. Baseline data was obtained in a fasting state after an overnight fast. Subjects were then administered 75 g of glucose and blood samples obtained at 1 and 2 hours. […]

Experiment [4] relates to Type II diabetic patients. Put plainly: Plasma gastrin during 24 week omeprazole trial (Example 4). The following applies: serum levels gradually reduced over time (FIG. 7).
Method: Statistical comparisons and analysis were performed with a commercial program, Analyse-it, version 2.20. Design: All subjects continued on their respective oral antidiabetic medications throughout the study. Baseline data was obtained in a fasting state after an overnight fast. Subjects were then administered 75 g of glucose and blood samples obtained at 1 and 2 hours. Following collection of baseline data, subjects were administered Omeprazole Delayed-Release Capsules USP, (Apotex Inc., Toronto, Canada [MUT] 179), 40 mg orally twice daily and blood samples again obtained after 8, and 16 weeks. Medications were not taken on the mornings of testing. Following the 16 week sample collection, subjects were increased to 80 mg Omeprazole twice daily and blood samples again obtained at 24 weeks. Measurements: Helicobacter Pylori IgG was obtained on each subject as a baseline as were Hemoglobin A1c and fasting Gastrin. Each 2 hour glucose tolerance test provided fasting glucose, insulin and c-peptide as well as 1 hour and 2 hour glucose and stimulated insulin and c-peptide. All measurements were obtained through a commercial laboratory using standardized analytical methods, Quest Diagnostics Laboratory, 5850 Rogerdale Road, Houston, Tex.
Setting [5] is: after PPI administration (FIG. 4).

Molecules are shown by their SMILES.

With `COc1ccc2[nH]c([S+]([O-])Cc3ncc(C)c(OC)c3C)nc2c1` (stereo not drawn) [Omeprazole, 5-methoxy-2-[(4-methoxy-3,5-dimethyl-2-pyridinyl)methyl]sulfinyl-1H-benzimidazole], the “maximum glucose excursion at both 1 and 2 hours, change” value in experiment [1] (8 and 16 weeks, statistically significant reductions at 16 weeks (FIG. 3)) is given as “reduced”. Further, in experiment [1] (setting [5]), the “Stimulated insulin secretion at both 1 and 2 hours, change” value is recorded as “increased”; the “fasting insulin levels, change” value was “unchanged”. In addition, in experiment [1] (after PPI administration (FIG. 5)), the “1 and 2 hour c-peptide secretion, change” value was “increased”. Also, the “Fasting blood glucose, change” value in experiment [1] (at both 8 and 16 weeks (FIG. 3)) is “reduced”. Besides, in experiment [2], the “calculated Beta cell mass increase across the treatment period” value is “approximately 25%”. Besides, the “percent hemoglobin A1c, change for all patients” value in experiment [3] (FIG. 1, statistically significant) is listed as “decrease”. In addition, in experiment [3] (seven Type II diabetics, PPI administration up to 24 weeks (FIG. 6)), the “Hemoglobin A1c reduction in this cohort” value is “approximately 0.9%”. Further, the “plasma gastrin, change by long term PPI administration” value in experiment [4] is recorded as “markedly elevated”.
